Laboratory results published in article PMC12136037, “Type II kinase inhibitors that target Parkinson’s disease–associated LRRK2” (Science Advances, 2025).

Key:
Assay in all cases: DSF 100 kinase selectivity screen;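 further: compound tested at 20 µM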
Type in all cases: binding
[1] = molecular target: T1, ~100 representative kinases (Homo sapiens, UniProt O14936); settings: Protein CASK; average of three replicates
T1 construct: Recombinant protein kinase domains with a concentration of 2 μM
T1 sequence (O14936 1-926): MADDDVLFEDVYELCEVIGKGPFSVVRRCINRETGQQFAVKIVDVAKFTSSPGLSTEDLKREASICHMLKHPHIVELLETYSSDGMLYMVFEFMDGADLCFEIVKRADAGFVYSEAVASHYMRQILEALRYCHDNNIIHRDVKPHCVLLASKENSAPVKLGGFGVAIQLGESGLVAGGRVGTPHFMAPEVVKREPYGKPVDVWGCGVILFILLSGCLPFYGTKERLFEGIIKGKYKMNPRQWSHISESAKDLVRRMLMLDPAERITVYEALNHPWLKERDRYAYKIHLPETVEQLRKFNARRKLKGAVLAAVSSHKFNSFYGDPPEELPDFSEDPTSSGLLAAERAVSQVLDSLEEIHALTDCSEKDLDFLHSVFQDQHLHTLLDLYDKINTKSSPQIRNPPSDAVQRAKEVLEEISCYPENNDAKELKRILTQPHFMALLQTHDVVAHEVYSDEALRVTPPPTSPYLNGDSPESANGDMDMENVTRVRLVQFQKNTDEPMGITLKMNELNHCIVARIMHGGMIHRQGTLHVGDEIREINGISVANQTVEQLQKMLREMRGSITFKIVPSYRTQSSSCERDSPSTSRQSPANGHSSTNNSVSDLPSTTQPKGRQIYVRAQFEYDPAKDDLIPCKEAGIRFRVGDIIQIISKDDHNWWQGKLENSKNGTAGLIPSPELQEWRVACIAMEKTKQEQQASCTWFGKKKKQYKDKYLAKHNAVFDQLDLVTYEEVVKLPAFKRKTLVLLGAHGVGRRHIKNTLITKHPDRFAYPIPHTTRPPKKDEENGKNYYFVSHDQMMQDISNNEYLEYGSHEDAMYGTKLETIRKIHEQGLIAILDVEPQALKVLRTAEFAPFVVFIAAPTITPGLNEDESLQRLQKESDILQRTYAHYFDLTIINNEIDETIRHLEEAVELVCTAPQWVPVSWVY
Protocol: (§1) Recombinant protein kinase domains with a concentration of 2 μM were mixed with a 20 μM compound solution in dimethyl sulfoxide (DMSO), 20 mM Hepes (pH 7.5), and 500 mM NaCl. SYPRO Orange (5000×, Invitrogen) was added as a fluorescence probe (1μl/ml). Subsequently, temperature-dependent protein unfolding profiles were measured using the QuantStudio 5 realtime PCR machine (Thermo Fisher Scientific, Waltham, MA, USA). […] The temperature was raised with a step rate of 3°C/min. […] Differences in melting temperature are given as ΔTm values in degrees Celsius. […]

[2] = molecular target: T2, ~100 representative kinases (Homo sapiens, UniProt O96013); settings: protein PAK4; average of three replicates
T2 construct: Recombinant protein kinase domains with a concentration of 2 μM
Protocol: as §1

[3] = molecular target: T3, ~100 representative kinases (Homo sapiens, UniProt P49761); settings: Protein CLK3; average of three replicates
T3 construct: Recombinant protein kinase domains with a concentration of 2 μM
Protocol: as §1

[4] = molecular target: T4, ~100 representative kinases (Homo sapiens, UniProt P53779); settings: protein MAPK10; average of three replicates
T4 construct: Recombinant protein kinase domains with a concentration of 2 μM
Protocol: as §1

[5] = molecular target: T5, ~100 representative kinases (Homo sapiens, UniProt Q15375); settings: Protein EPHA7; average of three replicates
T5 construct: Recombinant protein kinase domains with a concentration of 2 μM
Protocol: as §1

[6] = molecular target: T6, ~100 representative kinases (Homo sapiens, UniProt Q86V86); settings: protein PIM3; average of three replicates
T6 construct: Recombinant protein kinase domains with a concentration of 2 μM
Protocol: as §1

[7] = molecular target: T7, ~100 representative kinases (Homo sapiens, UniProt Q96NX5); settings: Protein CAMK1G; average of three replicates
T7 construct: Recombinant protein kinase domains with a concentration of 2 μM
Protocol: as §1

[8] = molecular target: T8, ~100 representative kinases (Homo sapiens, UniProt Q96RR4); settings: Protein CAMKK2; average of three replicates
T8 construct: Recombinant protein kinase domains with a concentration of 2 μM
Protocol: as §1

[9] = molecular target: T9, ~100 representative kinases (Homo sapiens, UniProt Q99986); settings: Protein VRK1; DSF; average of three replicates
T9 construct: Recombinant protein kinase domains with a concentration of 2 μM
T9 sequence (Q99986 1-396): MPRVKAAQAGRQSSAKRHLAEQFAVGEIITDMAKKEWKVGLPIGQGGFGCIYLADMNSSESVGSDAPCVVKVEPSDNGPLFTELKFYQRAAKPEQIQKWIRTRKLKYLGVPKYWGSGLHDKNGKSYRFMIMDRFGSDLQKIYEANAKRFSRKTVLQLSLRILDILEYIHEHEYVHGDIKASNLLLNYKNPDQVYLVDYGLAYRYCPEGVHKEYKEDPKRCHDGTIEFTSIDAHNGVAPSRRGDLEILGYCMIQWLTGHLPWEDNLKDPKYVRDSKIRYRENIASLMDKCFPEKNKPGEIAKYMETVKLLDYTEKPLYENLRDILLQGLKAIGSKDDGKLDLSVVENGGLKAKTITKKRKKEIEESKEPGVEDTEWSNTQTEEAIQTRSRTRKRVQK
Protocol: as §1

[10] = molecular target: T10, ~100 representative kinases (Homo sapiens, UniProt Q9H4A3); settings: Protein WNK1; DSF; average of three replicates
T10 construct: Recombinant protein kinase domains with a concentration of 2 μM
Protocol: as §1

[11] = molecular target: T11, ~100 representative kinases (Homo sapiens, UniProt Q9UEE5); settings: Protein STK17A; DSF; average of three replicates
T11 construct: Recombinant protein kinase domains with a concentration of 2 μM
T11 sequence (Q9UEE5 1-414): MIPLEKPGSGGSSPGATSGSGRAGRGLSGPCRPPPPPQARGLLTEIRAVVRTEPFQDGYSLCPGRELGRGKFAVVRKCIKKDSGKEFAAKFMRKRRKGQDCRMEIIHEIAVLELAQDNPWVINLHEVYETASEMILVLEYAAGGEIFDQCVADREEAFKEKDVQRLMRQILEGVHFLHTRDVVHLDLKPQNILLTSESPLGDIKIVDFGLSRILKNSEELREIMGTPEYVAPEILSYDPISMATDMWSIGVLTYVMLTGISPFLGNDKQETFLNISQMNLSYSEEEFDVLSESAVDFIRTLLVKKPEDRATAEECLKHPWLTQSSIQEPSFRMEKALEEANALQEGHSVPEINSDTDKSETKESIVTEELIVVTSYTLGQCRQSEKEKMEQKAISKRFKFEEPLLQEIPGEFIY
Protocol: as §1

[12] = molecular target: T12, ~100 representative kinases (Homo sapiens, UniProt Q9Y2H1); settings: Protein STK38L; DSF; average of three replicates
T12 construct: Recombinant protein kinase domains with a concentration of 2 μM
Protocol: as §1

T2 sequence (O96013 whole entry, the tested form may be a part): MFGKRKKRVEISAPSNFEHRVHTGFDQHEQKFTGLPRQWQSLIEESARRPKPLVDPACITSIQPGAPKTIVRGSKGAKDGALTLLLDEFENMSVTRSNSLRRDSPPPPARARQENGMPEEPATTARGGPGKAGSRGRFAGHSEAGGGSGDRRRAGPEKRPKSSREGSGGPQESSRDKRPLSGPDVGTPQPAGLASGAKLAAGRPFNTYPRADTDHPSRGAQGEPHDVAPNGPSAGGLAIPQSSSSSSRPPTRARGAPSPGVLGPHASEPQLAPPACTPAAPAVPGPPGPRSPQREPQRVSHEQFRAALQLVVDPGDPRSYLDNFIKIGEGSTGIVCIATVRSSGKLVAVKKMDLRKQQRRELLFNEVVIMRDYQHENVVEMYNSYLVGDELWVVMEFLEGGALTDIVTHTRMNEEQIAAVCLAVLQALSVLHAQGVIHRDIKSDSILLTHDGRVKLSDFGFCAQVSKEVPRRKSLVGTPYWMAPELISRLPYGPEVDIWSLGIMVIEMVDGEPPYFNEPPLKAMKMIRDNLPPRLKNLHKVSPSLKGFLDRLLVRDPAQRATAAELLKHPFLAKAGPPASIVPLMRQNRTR
T12 sequence (Q9Y2H1 whole entry, the tested form may be a part): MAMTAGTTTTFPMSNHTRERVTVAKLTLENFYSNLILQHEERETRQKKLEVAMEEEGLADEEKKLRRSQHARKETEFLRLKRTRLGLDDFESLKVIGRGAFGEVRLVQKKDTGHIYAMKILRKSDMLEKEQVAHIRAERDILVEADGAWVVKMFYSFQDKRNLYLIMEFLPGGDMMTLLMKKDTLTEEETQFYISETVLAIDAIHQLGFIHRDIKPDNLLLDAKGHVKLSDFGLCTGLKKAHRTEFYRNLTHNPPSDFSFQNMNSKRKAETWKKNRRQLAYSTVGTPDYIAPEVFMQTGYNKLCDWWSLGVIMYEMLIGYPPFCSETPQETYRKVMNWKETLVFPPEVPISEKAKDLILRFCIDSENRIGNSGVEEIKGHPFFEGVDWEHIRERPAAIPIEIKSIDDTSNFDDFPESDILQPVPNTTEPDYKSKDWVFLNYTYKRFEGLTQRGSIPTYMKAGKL
T8 sequence (Q96RR4 whole entry, the tested form may be a part): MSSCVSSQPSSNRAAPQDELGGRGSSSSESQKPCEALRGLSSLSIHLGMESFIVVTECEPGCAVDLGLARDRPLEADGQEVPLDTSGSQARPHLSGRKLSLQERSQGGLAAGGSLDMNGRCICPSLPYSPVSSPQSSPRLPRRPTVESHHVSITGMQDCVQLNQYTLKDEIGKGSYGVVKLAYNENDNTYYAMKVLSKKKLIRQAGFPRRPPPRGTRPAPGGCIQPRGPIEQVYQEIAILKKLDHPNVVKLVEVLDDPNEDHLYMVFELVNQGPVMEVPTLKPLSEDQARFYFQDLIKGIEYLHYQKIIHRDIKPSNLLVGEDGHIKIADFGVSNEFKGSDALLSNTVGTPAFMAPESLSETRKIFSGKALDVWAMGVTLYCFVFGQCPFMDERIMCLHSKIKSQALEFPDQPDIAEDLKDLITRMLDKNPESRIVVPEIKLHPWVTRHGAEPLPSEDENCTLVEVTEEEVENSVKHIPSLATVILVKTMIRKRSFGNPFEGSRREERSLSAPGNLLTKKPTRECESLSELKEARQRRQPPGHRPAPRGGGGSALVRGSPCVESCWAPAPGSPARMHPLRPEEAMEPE
T4 sequence (P53779 whole entry, the tested form may be a part): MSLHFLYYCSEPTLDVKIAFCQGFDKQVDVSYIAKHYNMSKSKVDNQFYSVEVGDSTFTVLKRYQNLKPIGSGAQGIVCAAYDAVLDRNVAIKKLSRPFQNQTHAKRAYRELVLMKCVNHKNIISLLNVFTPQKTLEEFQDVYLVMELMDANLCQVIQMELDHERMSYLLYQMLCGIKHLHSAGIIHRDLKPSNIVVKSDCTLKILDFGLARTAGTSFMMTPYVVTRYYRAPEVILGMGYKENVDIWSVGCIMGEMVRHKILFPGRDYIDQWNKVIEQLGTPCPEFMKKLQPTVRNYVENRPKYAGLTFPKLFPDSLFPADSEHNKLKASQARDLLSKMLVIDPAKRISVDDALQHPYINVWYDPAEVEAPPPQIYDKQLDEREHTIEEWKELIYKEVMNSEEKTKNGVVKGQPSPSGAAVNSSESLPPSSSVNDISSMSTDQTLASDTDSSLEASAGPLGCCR
T10 sequence (Q9H4A3 whole entry, the tested form may be a part): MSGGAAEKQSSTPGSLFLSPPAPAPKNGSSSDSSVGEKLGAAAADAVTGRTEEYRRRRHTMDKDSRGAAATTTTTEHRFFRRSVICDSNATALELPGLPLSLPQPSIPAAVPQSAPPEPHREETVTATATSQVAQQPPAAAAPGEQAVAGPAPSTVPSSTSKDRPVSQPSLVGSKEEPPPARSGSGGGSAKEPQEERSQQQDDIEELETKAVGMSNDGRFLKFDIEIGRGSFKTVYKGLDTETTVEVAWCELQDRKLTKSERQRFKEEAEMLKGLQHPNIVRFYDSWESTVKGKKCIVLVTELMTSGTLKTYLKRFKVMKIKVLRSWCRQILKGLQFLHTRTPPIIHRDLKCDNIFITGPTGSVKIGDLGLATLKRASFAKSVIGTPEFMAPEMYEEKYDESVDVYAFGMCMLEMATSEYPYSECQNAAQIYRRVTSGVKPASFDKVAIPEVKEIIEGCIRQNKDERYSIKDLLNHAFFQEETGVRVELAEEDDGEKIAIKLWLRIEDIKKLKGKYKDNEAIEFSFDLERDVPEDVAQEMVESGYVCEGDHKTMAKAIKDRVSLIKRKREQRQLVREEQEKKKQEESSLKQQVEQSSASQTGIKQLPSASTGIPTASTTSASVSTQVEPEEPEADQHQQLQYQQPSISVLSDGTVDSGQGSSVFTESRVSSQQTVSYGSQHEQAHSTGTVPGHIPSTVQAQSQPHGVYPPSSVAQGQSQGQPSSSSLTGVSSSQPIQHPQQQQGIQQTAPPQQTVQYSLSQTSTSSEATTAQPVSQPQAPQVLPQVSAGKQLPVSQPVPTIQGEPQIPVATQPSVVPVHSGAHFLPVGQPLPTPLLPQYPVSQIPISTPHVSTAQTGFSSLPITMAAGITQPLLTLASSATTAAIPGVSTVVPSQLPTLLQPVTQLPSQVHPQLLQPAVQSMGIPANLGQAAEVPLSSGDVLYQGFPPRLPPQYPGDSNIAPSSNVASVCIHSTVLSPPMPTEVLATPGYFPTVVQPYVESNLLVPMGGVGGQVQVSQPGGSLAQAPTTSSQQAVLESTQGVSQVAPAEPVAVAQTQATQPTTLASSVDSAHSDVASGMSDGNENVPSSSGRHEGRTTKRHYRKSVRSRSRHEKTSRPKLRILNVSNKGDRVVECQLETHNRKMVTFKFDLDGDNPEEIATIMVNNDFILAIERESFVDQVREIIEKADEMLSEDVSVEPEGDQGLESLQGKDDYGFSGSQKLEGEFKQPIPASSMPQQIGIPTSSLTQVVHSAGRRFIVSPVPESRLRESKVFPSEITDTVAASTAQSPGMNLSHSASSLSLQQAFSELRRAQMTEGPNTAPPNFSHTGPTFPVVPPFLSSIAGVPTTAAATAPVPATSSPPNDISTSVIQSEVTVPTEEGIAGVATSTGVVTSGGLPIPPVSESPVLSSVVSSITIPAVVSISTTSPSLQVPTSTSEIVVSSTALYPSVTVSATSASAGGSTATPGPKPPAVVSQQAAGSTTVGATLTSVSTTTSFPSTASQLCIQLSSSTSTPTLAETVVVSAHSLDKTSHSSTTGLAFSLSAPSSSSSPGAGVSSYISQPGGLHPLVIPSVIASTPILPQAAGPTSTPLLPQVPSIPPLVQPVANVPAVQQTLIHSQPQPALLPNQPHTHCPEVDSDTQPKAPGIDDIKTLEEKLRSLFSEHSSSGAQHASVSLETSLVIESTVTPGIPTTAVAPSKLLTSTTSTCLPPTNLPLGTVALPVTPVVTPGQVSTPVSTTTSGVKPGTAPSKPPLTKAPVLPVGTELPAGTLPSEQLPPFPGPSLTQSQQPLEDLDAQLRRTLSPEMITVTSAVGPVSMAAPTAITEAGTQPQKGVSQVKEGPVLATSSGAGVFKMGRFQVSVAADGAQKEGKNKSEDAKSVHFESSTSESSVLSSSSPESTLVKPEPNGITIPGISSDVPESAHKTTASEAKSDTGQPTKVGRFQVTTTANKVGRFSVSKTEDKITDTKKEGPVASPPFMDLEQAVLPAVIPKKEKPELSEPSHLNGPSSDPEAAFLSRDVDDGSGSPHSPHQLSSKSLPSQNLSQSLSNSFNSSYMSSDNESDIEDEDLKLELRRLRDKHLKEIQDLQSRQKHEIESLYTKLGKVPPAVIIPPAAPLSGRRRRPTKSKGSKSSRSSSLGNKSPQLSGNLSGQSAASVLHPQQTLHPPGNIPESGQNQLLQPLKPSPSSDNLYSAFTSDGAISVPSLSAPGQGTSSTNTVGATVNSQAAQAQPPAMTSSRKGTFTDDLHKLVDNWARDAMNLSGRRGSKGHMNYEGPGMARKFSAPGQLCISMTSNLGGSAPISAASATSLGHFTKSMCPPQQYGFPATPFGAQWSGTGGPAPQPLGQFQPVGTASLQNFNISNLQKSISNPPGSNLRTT
T3 sequence (P49761 whole entry, the tested form may be a part): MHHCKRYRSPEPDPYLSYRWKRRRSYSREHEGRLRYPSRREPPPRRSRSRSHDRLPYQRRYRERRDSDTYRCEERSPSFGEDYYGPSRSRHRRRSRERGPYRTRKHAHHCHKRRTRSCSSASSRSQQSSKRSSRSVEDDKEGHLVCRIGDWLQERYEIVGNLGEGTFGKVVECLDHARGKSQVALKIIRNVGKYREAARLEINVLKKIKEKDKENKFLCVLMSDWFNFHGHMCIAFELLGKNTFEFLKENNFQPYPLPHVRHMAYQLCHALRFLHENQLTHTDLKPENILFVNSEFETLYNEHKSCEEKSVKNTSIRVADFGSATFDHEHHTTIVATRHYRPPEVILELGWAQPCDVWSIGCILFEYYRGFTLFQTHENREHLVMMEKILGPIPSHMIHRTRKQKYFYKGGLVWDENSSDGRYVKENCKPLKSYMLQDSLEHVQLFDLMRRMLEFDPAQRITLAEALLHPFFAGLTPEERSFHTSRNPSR

| SMILES | dTm [1] [K] | dTm [2] [K] | dTm [3] [K] | dTm [4] [K] | dTm [5] [K] | dTm [6] [K] | dTm [7] [K] | dTm [8] [K] | dTm [9] [K] | dTm [10] [K] | dTm [11] [K] | dTm [12] [K] |
| --- | --- | --- | --- | --- | --- | --- | --- | --- | --- | --- | --- | --- |
| CCSc1nc(NC)c2c(-c3cccc(NC(=O)Nc4cc(C(C)(C)C)nn4-c4ccc(C)cc4)c3)c[nH]c2n1 [Compound 32] | -0.26 | 0.61 | 0.50 | 3.75 | 0.38 | 2.14 | 0.27 | 2.43 | -0.68 | 0.83 | -0.0646 | -0.75 |
| O=C(Nc1cccc(-c2c[nH]c3ncnc(N4CCOCC4)c23)c1)c1cccn(-c2ccc(F)cc2)c1=O [Compound 4] | -0.18 | -0.78 | 2.86 | 7.48 | -1.83 | 0.41 | 1.22 | 8.67 | 1.12 | -0.00745 | -0.07 | -0.37 |
| O=C(Nc1cccc(-c2c[nH]c3ncnc(N4CCOCC4)c23)c1)C1(C(=O)Nc2cc(Br)c(F)cc2F)CC1 [Compound 25] | 1.03 | 0.88 | 2.08 | 3.64 | 2.86 | -0.17 | 4.91 | 6.31 | 1.24 | 1.20 | -0.61 | 0.00 |
| COc1cc2c(Oc3ccc(NC(=O)C4(C(=O)Nc5ccc(F)cc5)CC4)cc3F)ccnc2cc1OCCCN1CCOCC1 [Foretinib, reference compound] | 0.53 | 0.34 | 3.35 | 1.66 | -0.16 | -0.88 | 3.09 | 10.75 | 1.05 | 1.01 | -0.14 | 0.47 |
| C[C@@H]1CN(c2cc(-c3n[nH]c4ccc(OC5(C)CC5)cc34)ncn2)C[C@H](C)O1 [MLi2] | 0.19 | -0.10 | 3.51 | 0.0276 | 0.12 | 0.23 | 3.50 | 8.80 | 0.11 | 0.19 | -0.26 | -0.08 |

Next, values leading:

| dTm [1] [K] | dTm [2] [K] | dTm [3] [K] | dTm [4] [K] | dTm [5] [K] | dTm [6] [K] | dTm [7] [K] | dTm [8] [K] | dTm [9] [K] | dTm [10] [K] | dTm [11] [K] | dTm [12] [K] | SMILES |
| --- | --- | --- | --- | --- | --- | --- | --- | --- | --- | --- | --- | --- |
| -0.0179 | -0.47 | 0.69 | -0.11 | -2.57 | 0.00331 | 0.49 | 6.43 | 0.44 | -0.0334 | -0.51 | -0.0467 | Cc1cc(F)ccc1NC(=O)C1(C(=O)Nc2cccc(-c3c[nH]c4ncnc(N5CCOCC5)c34)c2)CC1 [Compound 24] |
| 0.30 | 0.12 | 3.15 | -0.56 | -1.78 | -0.94 | 1.77 | 7.29 | 0.75 | -0.45 | 0.36 | -0.20 | O=C(Nc1ccc(F)cc1)C1(C(=O)Nc2cccc(-c3c[nH]c4ncnc(N5CCOCC5)c34)c2)CC1 [Compound 2] |
| 0.09 | -0.79 | 3.11 | 0.29 | -1.98 | -0.0363 | 1.23 | 8.27 | 0.93 | -0.19 | 0.20 | -0.18 | COc1cc(NC(=O)C2(C(=O)Nc3cccc(-c4c[nH]c5ncnc(N6CCOCC6)c45)c3)CC2)ccc1F [Compound 21] |
| 1.08 | 0.76 | 4.17 | 1.37 | 2.40 | -1.29 | 4.22 | 9.68 | 0.81 | -1.93 | -0.64 | -2.35 | CC(C)(C)c1cccc(NC(=O)C2(C(=O)Nc3cccc(-c4c[nH]c5ncnc(N6CCOCC6)c45)c3)CC2)c1 [Compound 22] |
| 0.36 | -0.0471 | 2.88 | -0.66 | -2.17 | 1.24 | 1.75 | 5.52 | 1.12 | 0.33 | -0.28 | 0.73 | CCc1ccc(NC(=O)C2(C(=O)Nc3cccc(-c4c[nH]c5ncnc(N6CCOCC6)c45)c3)CC2)cc1 [Compound 15] |
| 1.04 | 0.78 | 3.24 | 5.85 | 1.95 | 0.88 | 4.69 | 5.53 | 1.02 | 1.13 | -0.52 | -2.16 | O=C(Nc1cccc(-c2c[nH]c3ncnc(N4CCOCC4)c23)c1)C1(C(=O)Nc2ccc(F)c(Br)c2F)CC1 [Compound 26] |
| 0.06 | -0.00913 | 1.58 | -0.75 | -2.29 | -0.33 | 1.64 | 5.31 | 0.51 | -0.34 | -0.31 | 0.0847 | O=C(Nc1cccc(-c2c[nH]c3ncnc(N4CCOCC4)c23)c1)C1(C(=O)Nc2ccc(F)cc2F)CC1 [Compound 23] |
